The subject of data set [1] is TPA-induced ear edema. As to the kind of experiment: TPA-induced ear edema model. Format: in vivo, ICR mouse. The protocol:
To observe the anti-inflammatory effects of chalcone or its derivatives edema was induced in the ear by topical application of 10 ul of TPA (Tetradecanoylphorbol acetate) in acetone (2.5 ug/ear) to both the inner and outer surface of one ear of each 6-week-old ICR mouse. 5% of Chalcone or its derivatives diluted with acetone were applied separately to each ear topically immediately after TPA. The reference drug, indomethacin (0.5 mg/ear), was administered as a positive control. Ear thickness was measured before and 4 hours after treatment with the irritant using a micrometer (Mitutoyo Co.). Ear thickness was expressed as the mean of the difference between thickness before and after challenge. Inhibition ratio percentage of edema was expressed as the reduction in thickness with respect to the control treated only with TPA. As shown in FIG. 6 and Table 2, chalcone or its derivatives suppressed the TPA-induced ear edema.

The subject of data set [2] is UVB-induced wrinkle formation. As to the kind of experiment: Skin photoaging, UVB-induced wrinkle formation. Type of data set: in vivo, albino hairless HOS:HR1 mice. The following applies: topical, 15 week. From the text:
Effects of chalcone on skin photoaging were studied using mouse skin wrinkle induced by UV irradiation. 6-week male albino hairless HOS:HR1 mice were used for wrinkle formation induced by long-term repeated UVB irradiation. Wrinkles were formed according to the modified method described by Bissett et al (Photochem Photobiol 46: 367-378, 1987) The dose was set at 60 mJ per cm^2 for 4 weeks and increased to 120 mJ per cm^2 for 11 weeks. The frequency of irradiation was set at three times per week. In this protocol, wrinkles began to be observed macroscopically in the dorsal region from about 8 week after initiation of irradiation, and deep wrinkles were formed at 12 week. 30 hairless mice were divided into three groups, and only one of ethanol-propylene glycol (7:3) (control), 1% chalcone in ethanol-propylene glycol (7:3), or 5% chalcone in ethanol-propylene glycol (7:3) was applied on each groups for 15 weeks. 100 μl of the experimental agent was applied to the dorsal region three times weekly just after UVB exposure. At 15 week after initiation of repeated UVB irradiation, each hairless mouse was anesthetized, and the degree of wrinkle formation was evaluated according to Table 3. […] [table]

A short description of data set [3]: Skin sensitization by human patch test. Format: in vivo. The note with it: interpretation of skin average reactivity. The procedure:
The effect of chalcone on skin sensitization was studied by general method of skin patch test. The skin patch test was done against human subjects of ten adults. Test patch (2 cm×2 cm) included 0.2 ml of cream containing 0.01%-1.0% chalcone. The patches were applied to the backs of subjects. The patch was removed after 48 hours or 96 hours, and the skin responses of subjects were recorded and evaluated as shown in Table 4. The skin average reactivity calculated by equation 1 was interpreted as the degree of skin sensitivity in Table 5. According to the skin patch test, chalcone was nonreactive to skin sensitization (Table 6).

The subject of data set [4] is TPA-induced ear edema. The data set is described as follows: TPA-induced ear edema model. Type of data set: in vivo, ICR mouse. The note with it: FIG. 7.

The structures appear in SMILES notation.

Turning to `O=C(/C=C/c1ccccc1)c1ccccc1` [Chalcone], the “Inhibition ratio (%) of ear edema” value in data set [1] (topical 5% in acetone (indomethacin 0.5 mg/ear), 4 hours after TPA) is given as 69.3%. For the same compound, in data set [1] (topical 5% in acetone (indomethacin 0.5 mg/ear), 4 hours after TPA, TPA control 176 ± 35), the “Δ Ear thickness (um ± S.D)” value was found to be 54 ± 22 um. Besides, the “Relative potency among chalcone or its derivatives on ear edema” value in data set [1] (topical 5%, TPA-induced ear edema) is listed as “greatest potency”. For the same compound, the “UVB-induced wrinkle formation vs vehicle-treated group” value in data set [2] (1% chalcone in ethanol-propylene glycol (7:3)) and in data set [2] (5% chalcone in ethanol-propylene glycol (7:3)) was “significantly inhibited” each time. For the same compound, the “Result of skin patch test (degree of skin sensitivity)” value in data set [3] is on record as “nonreactive (0.0-0.9)”. In addition, the “Dose dependence of anti-inflammatory activity” value in data set [4] is reported as “dose dependent”.
